In US6642237B1, “Gamma-hydroxy-2-(fluoroalkylaminocarbonyl)-1-piperazinepentanamides and uses thereof” (Merck & Co., Inc., priority 1999, dated 2003):

Experiments:
[1] = test system: HIV-1 viral constructs Q60, K-60, and V-18 in MT-4 T-lymphoid cells; assay type: cell-based; conditions: concentration reducing spread of infection by at least 95%; MT-4 cells, 4 days postinfection
Protocol: Inhibition of the spread of HIV in cell culture was measured according to Nunberg et al., J. Virol. […] In this assay, MT-4 T-lymphoid cells were infected with HIV-1 (wild-type, unless otherwise indicated) by using a predetermined inoculum, and cultures were incubated for 24 h. At this time, ≦1% of the cells were positive by indirect immunofluorescence. Cells were then extensively washed and distributed into 96-well culture dishes. Serial twofold dilutions of inhibitor were added to the wells, and cultures were continued for 3 additional days. At 4 days postinfection, 100% of the cells in control cultures were infected. HIV-1 p24 accumulation was directly correlated with virus spread. The cell culture inhibitory concentration was defined as the inhibitor concentration in nanomoles/liter which reduced the spread of infection by at least 95%, or CIC95.

HIV = conditions: HIV-infected patients; in combination with nucleoside reverse transcriptase inhibitors; cited from earlier work

CC(C)(C)NC(=O)[C@@H]1CN(Cc2cccnc2)CCN1C[C@@H](O)C[C@@H](Cc1ccccc1)C(=O)N[C@H]1c2ccccc2C[C@H]1O [indinavir]
CIC95 against the viral constructs Q60, K-60, and V-18 [1]: greater than 1000 nM
reducing HIV viral loads and increasing CD4 cell counts (HIV): highly effective
